From patent US12128015B2, “APE/REF1 inhibitors for the treatment of cancer” (Chapman University, priority 2021, dated 2024)
Entries after “also recorded” stand apart in the source; their conditions may differ. Read-outs that look alike come from different tables or passages of the source.

Tests used:
[1] = system: human melanoma A375 and SK-Mel-28 cells; test: MTT cytotoxicity in human melanoma A375 and SK-Mel-28 cells (Table 1); assay type: cell-based; conditions: for IC50: read-out: IC50 (50% inhibition of cell survival), MTT assay; for anti-melanoma activity (MTT): in words
Source text: (§1) All the cells were passaged once reaching 70-90% confluence.
(§2) (MTT) metabolized by alive cells.

[2] = system: melanoma cell lines; test: Toxicity of PNRI-299 in the inventors' tested melanoma cell lines; assay type: cell-based
[3] = system: A375 melanoma cells; test: MTT cell viability assay, A375 melanoma cells; assay type: cell-based, human; conditions: for cell viability: 1 μM, A375 cells (FIG. 2C), control = vehicle 0.1% DMSO
Source text: as §1, §2

[4] = system: AP-1 transactivation; test: Luciferase assay to determine AP-1 transactivation activities in A375 cells; assay type: cell-based, human; conditions: for inhibition of H2O2-activated AP-1 transactivation: compound 10 μM
Source text: FIG. 3. Inhibition of AP-1 transcriptional activation in human melanoma A375 cells by compound 2. A375 cells were transfected with an AP-1 luciferase reporter plasmid. […] After treatments, the cells were harvested to determine the luciferase activity, expressed as a fold of control without any treatment. The results normalized by cell numbers represent means±S.D of triplicates. *, p<0.05 compared to control; **, p<0.05 compared to H2O2-treatment.
3×AP1pGL3 (3×AP-1 in pGL3-basic; Addgene plasmid #40342), which contains three canonical AP-1 binding sites (TGACTCA) upstream of a minimal promoter fragment containing a TATA box in the luciferase reporter plasmid pGL3-basic. 3×AP1pGL3 was transfected to human melanoma A375 cells using Lipofectamine 2000 following the manufacturer's instructions (Invitrogen). […]
After different treatments, the cells were rinsed twice with phosphate-buffered saline (PBS). Cells were then scraped from the plates in PBS and pelleted for 4 min at 4° C. in a microcentrifuge at 12,000 rpm. Cell pellets were resuspended in 100 μL luciferase lysis buffer for luciferase assay as described (Promega). Luciferase activity measured in relative light units reflects the AP-1 transcription rate and was detected by a SpectraMax M5 UV VIZ Plate Reader. Cell count was conducted for normalization. All the samples were studied in duplicate, and readings were taken in triplicate. Each experiment was repeated at least two times.

[5] = system: human breast cancer cells; conditions: collective cell migration; chemo-invasion and colony formation with docetaxel; cited from earlier work
[6] = Phase I trial, cited from earlier work
[7] = Water solubility: drug precipitation in the media; assay type: physicochemical
[8] = system: Sk-Mel-28 melanoma cells; conditions: read-out: IC50, cell viability; Sk-Mel-28 cells, MTT, 72 h
Method: Human malignant melanoma cells (A375, CRL-1619™; Sk-Mel-28, HTB-72™) were purchased from ATCC®. Cells were cultured in Dulbecco's Modified Eagle Medium (DMEM) (ATCC #30-2002) or Eagles' Minimum Essential Medium (EMEM) (ATCC #30-2003) supplemented with 10% fetal bovine serum (FBS) (ATCC #30-2020) at 37° C. in 5% CO2 incubator. All the cells were passaged once reaching 70-90% confluence.

[9] = system: Hermes 1 melanoblast cells; conditions: 72 h
[10] = system: Hermes 3A melanoblast cells; test: MTT cell viability assay, Hermes 3A melanoblast cells; assay type: cell-based, human; conditions: 72 h treatment
Source text: as §2

[11] = system: Hermes 4A melanoblast cells; test: MTT cell viability assay, Hermes 4A melanoblast cells; assay type: cell-based, human; conditions: 72 h treatment
Source text: as §2

[12] = system: A375 metastatic melanoma xenograft; test: In vivo xenograft melanoma (A375 cells in nude mice)
Method: FIG. 4. Compound 2 inhibited the tumor growth of human melanoma in vivo. Metastatic melanoma A375 cells were injected into male nude mice subcutaneously on the flank. Compound 2 was administered i.p. daily at the dose of 5 mg/kg. The growth of the tumor was measured daily, and tumor volume was measured by digital calipers and determined using the formula (mm^3)=[L×(W2)]/2. Tumor growth was presented as a fold of increase in size (mean±SD). *, p<0.05 compared to control (N=7; Compound 2 group, N=5).
The Institutional Animal Care and Use Committee approved all the animal procedures at Chapman University (IACUC #2020-1131). Male nude mice (Nu/Nu) were purchased from Charles River and were housed and maintained in the Chapman University vivarium under pathogen-free conditions. Human A375 metastatic melanoma cells were injected subcutaneously into the mouse's flank (1×10^6 cells per mouse). Three days-post tumor cell injection, mice were randomized into different groups. The treatment group was injected with compound 2 (5 mg/kg/day, i.p.) for 21 days. The growth of the tumors was monitored three times a week and measured using digital Vernier calipers. The size of the tumors was calculated as tumor volume (mm^3)=[L×(W2)]/2. The mice were sacrificed at the end of the experiment.
(§3) Given the limited water solubility, lead compound 2 (in DMSO) was further diluted in normal saline, the drug suspension, and sonicated at room temperature for 15 min. before injection to nude mice. […] The drug suspension was made fresh daily and injected into mice immediately after the compounding.

[13] = HPLC analysis of the drug suspension after compounding; assay type: physicochemical; conditions: DMSO solution diluted in normal saline, sonicated 15 min at room temperature
Method: as §3

[14] = system: HT1080 cells; conditions: cited from earlier work
[15] = 72 h, human melanoma A375 and SK-Mel-28 cells (compound 11: average of the two lines)

With O=C(/C=C/c1ccc(O)cc1)NCCCCCCCCCCCCNC(=O)/C=C/c1ccc(O)cc1 [Compound 4] the IC50 [1, 15] was over 10000 nM and the “anti-melanoma activity (MTT)” value [1] was “significant loss of anti-tumor activity compared to compound 2”.
In the case of N#Cc1cccc(-n2c(=O)n3n(c2=O)C(C(=O)NCc2ccccc2)=CC(=O)C3)c1 [PNRI-299], the “concentration up to which neither toxicity nor synergistic effects were observed” value [2] is reported as over 100 µM.
In the case of CCCCCCCCC/C(=C\C1=C(C)C(=O)C(OC)=C(OC)C1=O)C(=O)O [Compound E3330], the cell viability [3] is listed as 102.6 % of control, the “inhibition of H2O2-activated AP-1 transactivation” value ([4]; H2O2 100 μM, 48 h) is listed as “only reduced the AP-1 activity marginally, which was not statistically significant” and the “concentration at which inhibitory activity was evident” value [5] is listed as 50 µM. For the same compound, the “patients with disease stabilization for ≥4 cycles” value ([6]; cancer patients) was “six of nineteen” and the “duration of treatment with stable disease, one melanoma patient” value [6] was 245 days.
For O=C(/C=C/c1cccc(O)c1)NCCCCCCCCCCCCNC(=O)/C=C/c1cccc(O)c1 [Compound 7, (2E,2′E)-N,N′-(dodecane-1,12-diyl)bis(3-(3-hydroxyphenyl)acrylamide)], the IC50 ([1]; Homo sapiens, 72 h) was over 10000 nM and the “anti-melanoma activity (MTT)” value [1] was “significant loss of anti-tumor activity compared to compound 2”.
In the case of O=C(C=Cc1ccccc1)NCCCCCCCCCCCCNC(=O)/C=C/c1ccc(O)cc1 [Compound 11, (E)-N-(12-Cinnamamidododecyl)-3-(4-hydroxyphenyl) acrylamide], the cell viability [3] is reported as 19 % of control, the IC50 ([3]; A375 cells, MTT, 72 h) is reported as 88 nM and the IC50 [1, 15] is reported as 79 ± 13 nM. For the same compound, the “anti-melanoma activity (MTT)” value [1] was “potent cytotoxic effect”, the “inhibition of H2O2-activated AP-1 transactivation” value ([4]; H2O2 100 μM, 48 h) was “failed to inhibit” and the “precipitation concentration relative to compound 2” value [7] was “approximately 8 folds”. The “water solubility and stability” value ([7]; compared to compound 2) was “improved water solubility and stability compared to compound 2”, the “concentration at which drug precipitation was evident” value ([7]; in the media) was -20 µM and the IC50 [8] was 70 nM. For the same compound, the IC50 ([9]; read-out: IC50, cell viability, Hermes 1 melanoblast cells, MTT) was 274 nM.
With NCCCCCCCCCCCCNC(=O)/C=C/c1cccc(O)c1 [Compound 8, (E)-N-(12-Aminododecyl)-3-(3-hydroxyphenyl) acrylamide] the IC50 ([1]; Homo sapiens, 72 h) was over 25000 nM.
For O=C(/C=C/c1ccccc1)NCCCCCCCCCCCCNC(=O)/C=C/c1ccccc1 [Compound 2, (2E,2′E)-N,N′-(Dodecane-1,12-diyl)bis(3-phenylacrylamide)], the “dose dependence of cytotoxicity” value ([1]; MTT, 72 h) was “Cytotoxicity is not dose-”, the cytotoxicity [10] was “no significant cytotoxicity” and the cytotoxicity [11] was “no significant cytotoxicity”. For the same compound, the “H2O2-activated AP-1 activity (luciferase)” value ([4]; compound 0.5 μM, H2O2 100 μM, 48 h, H2O2 alone 2.3-fold of control) was 95.7 % of control, the “inhibition of basal AP-1 dependent transcription” value ([4]; without H2O2) was “did not display any inhibition” and the tumor size ([12]; 5 mg/kg i.p. daily, after 21-day treatment, nude mice) was 44.7 % of control. The systemic toxicity ([12]; 5 mg/kg i.p. daily, nude mice) was “without producing any apparent systemic toxicities; also recorded: no significant systemic toxicity observed”, the “tumor growth inhibition compared to the control group” value ([12]; 5 mg/kg i.p., xenograft mouse model) was 44.7% and the “chemical stability after compounding” value [13] was “no evidence of chemical structural change after compounding”. The cytotoxicity ([9]; human) was “more sensitive to compound 2, but the cytotoxicity was not elevated with increasing the concentrations”.
With O=C(/C=C/c1ccc(O)cc1)NCCCCCCNC(=O)/C=C/c1ccc(O)cc1 [Compound 5, (2E,2′E)-N,N′-(Hexane-1,6-diyl)bis(3-(4-hydroxyphenyl)acrylamide)] the IC50 ([1]; Homo sapiens, 72 h) was over 50000 nM and the “anti-melanoma activity (MTT)” value [1] was “loss of anti-melanoma activity compared to compound 2”.
With NCCCCCCCCCCCCNC(=O)C=Cc1ccccc1 [Compound 10, N-(12-Aminododecyl)cinnamamide] the IC50 ([1]; Homo sapiens, 72 h) was over 25000 nM.
In the case of O=C(/C=C/c1ccccc1)NCCCCCCCCCCCCNC(=O)/C=C/c1cccc(O)c1 [Compound 9, (E)-N-(12-Cinnamamidododecyl)-3-(3-hydroxyphenyl) acrylamide], the IC50 ([1]; Homo sapiens, 72 h) is reported as over 10000 nM and the “anti-melanoma activity (MTT)” value [1] is reported as “poor anti-melanoma activity”.
In the case of O=C(O)c1cc2cccc([N+](=O)[O-])c2[nH]1 [CRT0044876], the “concentration up to which no toxicity was seen” value ([14]; HT1080 cells, CRT0044876 alone) is given as over 400 µM and the “concentration at which synergistic enhancement of methyl methanesulphonate cytotoxicity was evident” value [14] is given as 200 µM.
In the case of O=C(/C=C/c1ccccc1)NCCCCCCNC(=O)/C=C/c1ccccc1 [Compound 12, (2E,2′E)-N,N′-(hexane-1,6-diyl)bis(3-phenylacrylamide)], the IC50 ([1]; Homo sapiens, 72 h) is reported as over 10000 nM.
